The results in this text go back to PubChem BioAssay (NCI).

Where “and” joins values, the source holds several entries; their conditions need not be identical. Identical values can stand only once.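 Where inhibition never reached the appropriate level, the endpoint shown equals the highest concentration tested. Otherwise, values were interpolated linearly from a five-concentration, 48-hour dose response in 96-well plates. GI50 is the concentration that inhibits growth by half. TGI is the concentration that stops growth completely.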

Assay in all cases: NCI-60 cell line screen, 48 h
Experiment [1] has as its system HOP-62 NSCLC.
For experiment [2], the system named is LOX IMVI melanoma.
The subject of experiment [3] is M14 melanoma.
Experiment [4] concerns MCF7 breast.
For experiment [5], the system named is SK-MEL-28 melanoma.
Experiment [6] has as its system SK-OV-3 ovarian.
Experiment [7] relates to SW-620 colon.
Experiment [8] deals with UACC-257 melanoma.

As to `C=C1CCC2C3(C)COC(c4ccc(NC(C)=O)cc4)OC3CCC2(C)C1C/C=C1/C(=O)OCC1O` (stereo not drawn), the GI50 in experiment [1] is above 100000 nM; in experiment [2], 21000 nM; in experiment [3], above 100000 nM; in experiment [4], 4580 nM; in experiment [5], above 100000 nM; in experiment [6] it was above 100 µM. The GI50 is 64300 nM in experiment [7] and 6260 nM in experiment [8]. For the same compound, the TGI in experiment [1] was above 100 µM; in experiment [2] it was above 100 µM; in experiment [3] it was above 100000 nM; in experiment [4], above 100 µM; in experiment [5] it was above 100 µM; in experiment [6], above 100 µM. Besides, the TGI in experiment [7] and in experiment [8] was above 100 µM in each case.

Consider `COc1ccc(/C(C)=C(\c2ccc(Cl)cc2)c2ccc(OCCN3CCCC3)cc2)cc1`, for which the GI50 in experiment [1] is 4680 nM; in experiment [2], 1510 nM; in experiment [3], 752 nM; in experiment [4], 887 nM; in experiment [5] it was 3520 nM; in experiment [6], 6.03 µM. Moreover, the GI50 in experiment [7] is 3040 nM; in experiment [8] it was 4600 nM. The TGI in experiment [1] is 9.03 µM; in experiment [2], 5.84 µM; in experiment [3], 1950 nM; in experiment [4] it was 5.83 µM; in experiment [5] it was 7.54 µM; in experiment [6], 10.7 µM. Also, the TGI came to 7.33 µM in experiment [7] and 9.24 µM in experiment [8].

As for `CC(C)C[C@H](NC(=O)[C@H](CCc1ccccc1)NC(=O)CN1CCOCC1)C(=O)N[C@@H](Cc1ccccc1)C(=O)N[C@@H](CC(C)C)C(=O)[C@@]1(C)CO1`, the GI50 in experiment [1] was below 13.9 nM; in experiment [2], below 10 nM; in experiment [3], below 13.1 nM; in experiment [4], below 10 nM; in experiment [5], 47.5 nM; in experiment [6], 0.0253 µM. Also, the GI50 in experiment [7] was below 10 nM; in experiment [8], 54.7 nM. For the same compound, the TGI in experiment [1] was below 0.0229 µM; in experiment [2] it was 0.0135 µM; in experiment [3], 44.6 nM; in experiment [4], 5.41 µM; in experiment [5], 1.57 µM; in experiment [6], 0.282 µM. Also, the TGI in experiment [8] was 0.287 µM.

On to `C#CCN1C(=O)/C(=c2\sc3n(c2=O)C2C(NN=3)N(CC)C(=O)N2CC)c2ccccc21` (stereo not drawn), for which the GI50 in experiment [1] was 868 nM; in experiment [2] it was 730 nM; in experiment [3], 283 nM; in experiment [4], 377 nM; in experiment [5], 734 nM; in experiment [6] it was 3.11 µM. The GI50 was 422 nM in experiment [7] and 49200 nM in experiment [8]. The TGI in experiment [1] was above 52.6 µM; in experiment [2] it was above 100 µM; in experiment [4] it was above 100 µM; in experiment [5] it was above 100 µM; in experiment [6] it was above 100 µM; in experiment [7], above 100 µM. For the same compound, the TGI in experiment [8] is above 100 µM.

Regarding `O=C(/C=C/c1ccc(C(F)(F)F)cc1)c1ccc(Nc2nc(NCCO)nc(NCCO)n2)cc1`, the GI50 is 2420 nM in experiment [1]; 1560 nM in experiment [2]; 3960 nM in experiment [3]; 1660 nM in experiment [4]; 3450 nM in experiment [5]; 4 µM in experiment [6]. The GI50 is 1970 nM in experiment [7] and 10300 nM in experiment [8]. Further, the TGI turned out to be 7.99 µM in experiment [1]; 3 µM in experiment [2]; 17100 nM in experiment [3]; 5.16 µM in experiment [4]; 13 µM in experiment [5]; 15.1 µM in experiment [6]. In addition, the values for the TGI in experiment [7] and in experiment [8] were 4.25 µM and 23.4 µM, respectively.

Regarding `Nc1ncnc2c1c(C(F)(F)F)cn2[C@@H]1O[C@H](CO)[C@@H](O)[C@H]1O`, the GI50 in experiment [1] is 278 nM; in experiment [2], 51 nM; in experiment [3] it was 41.9 nM; in experiment [4], 40.5 nM; in experiment [5] it was 1290 nM; in experiment [6] it was 2.49 µM. In addition, the GI50 in experiment [7] is 64.4 nM; in experiment [8], 306 nM. Further, the TGI was above 100 µM in experiment [1]; above 100 µM in experiment [2]; 1910 nM in experiment [3]; above 86.3 µM in experiment [4]; 6.13 µM in experiment [5]; above 100 µM in experiment [6]. Also, in experiment [7], the TGI was above 100 µM.

In the case of `C(=N\Nc1nnc2c(n1)[nH]c1ccccc12)/c1cccnc1`, the TGI is above 100 µM in experiment [1]; above 100 µM in experiment [2]; 46200 nM in experiment [3]; above 100 µM in experiment [4]; above 100 µM in experiment [5]; above 100 µM in experiment [6]. The TGI in experiment [7] and in experiment [8] was above 100 µM throughout.

Turning to `CCCS(=O)(=O)Nc1ccc(F)c(C(=O)c2c[nH]c3ncc(-c4ccc(Cl)cc4)cc23)c1F`, the GI50 in experiment [1] was 7390 nM and > 8120 nM; in experiment [2], 1470 nM and 1270 nM; in experiment [3] it was 40.3 nM and 41.3 nM; in experiment [4], 5240 nM and 8840 nM; in experiment [5], 36.9 nM and 42.2 nM; in experiment [6], 4.19 µM and 3.38 µM. Further, the GI50 is 10000 nM and > 8980 nM in experiment [7]; 48.5 nM and 64.3 nM in experiment [8]. In addition, the TGI was 21.6 µM and > 10 µM in experiment [1]; 15.2 µM and > 10 µM in experiment [2]; 1340 nM and 2210 nM in experiment [3]; 20.9 µM and > 10 µM in experiment [4]; 2.98 µM and 0.696 µM in experiment [5]; 19 µM and > 10 µM in experiment [6]. Further, the TGI in experiment [7] is 27.3 µM and > 10 µM; in experiment [8], 3.71 µM and 0.604 µM.

As for `CN1/C(=C\C(I)C(I)C2=[N+](C)c3ccccc3C2(C)C)C(C)(C)c2ccccc21` (stereo not drawn), the GI50 in experiment [1] is 383 nM; in experiment [2], 295 nM; in experiment [3] it was 367 nM; in experiment [4], 485 nM; in experiment [5] it was 522 nM; in experiment [6], 0.247 µM. Moreover, the GI50 in experiment [7] is 333 nM; in experiment [8], 175 nM. Moreover, the TGI in experiment [1] came to 13.8 µM; in experiment [2] it was 13.4 µM; in experiment [3], 13200 nM; in experiment [4] it was 19.2 µM; in experiment [5], 19.8 µM; in experiment [6] it was 1.6 µM. For the same compound, the TGI in experiment [7] is 17 µM; in experiment [8], 2.24 µM.
